From patent US6610712B2, “Aryloxy piperidinyl derivatives for the treatment of depression” (Wyeth, priority 2000, dated 2003)
Structures can show the parent of a compound that is named as a salt.

Legend:
[1] = molecular target: Serotonin Transporter (Homo sapiens, UniProt P31645); assay: Serotonin transporter binding, [3H]paroxetine; conditions: radioligand [3H]paroxetine
[2] = molecular target: T1, 5-HT1A (Homo sapiens, UniProt P08908); assay: 5-HT1A receptor binding, [3H]DPAT; set-up: 5-HT1A [3H]DPAT, % at single concentration: dose or concentration left out as unconfirmed; conditions: radioligand [3H]DPAT
T1 sequence (P08908 1-422): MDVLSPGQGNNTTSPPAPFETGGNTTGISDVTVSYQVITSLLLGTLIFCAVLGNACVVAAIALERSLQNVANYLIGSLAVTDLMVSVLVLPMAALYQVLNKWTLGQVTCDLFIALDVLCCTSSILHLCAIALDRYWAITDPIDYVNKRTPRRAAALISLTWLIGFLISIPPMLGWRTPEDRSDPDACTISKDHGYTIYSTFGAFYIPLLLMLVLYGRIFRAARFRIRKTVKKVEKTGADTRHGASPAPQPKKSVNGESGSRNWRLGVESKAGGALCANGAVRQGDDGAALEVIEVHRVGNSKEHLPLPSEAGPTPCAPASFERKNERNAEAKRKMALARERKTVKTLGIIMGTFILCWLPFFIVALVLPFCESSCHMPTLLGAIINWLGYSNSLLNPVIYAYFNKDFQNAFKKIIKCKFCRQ

Sequence of Serotonin Transporter (P31645 whole entry): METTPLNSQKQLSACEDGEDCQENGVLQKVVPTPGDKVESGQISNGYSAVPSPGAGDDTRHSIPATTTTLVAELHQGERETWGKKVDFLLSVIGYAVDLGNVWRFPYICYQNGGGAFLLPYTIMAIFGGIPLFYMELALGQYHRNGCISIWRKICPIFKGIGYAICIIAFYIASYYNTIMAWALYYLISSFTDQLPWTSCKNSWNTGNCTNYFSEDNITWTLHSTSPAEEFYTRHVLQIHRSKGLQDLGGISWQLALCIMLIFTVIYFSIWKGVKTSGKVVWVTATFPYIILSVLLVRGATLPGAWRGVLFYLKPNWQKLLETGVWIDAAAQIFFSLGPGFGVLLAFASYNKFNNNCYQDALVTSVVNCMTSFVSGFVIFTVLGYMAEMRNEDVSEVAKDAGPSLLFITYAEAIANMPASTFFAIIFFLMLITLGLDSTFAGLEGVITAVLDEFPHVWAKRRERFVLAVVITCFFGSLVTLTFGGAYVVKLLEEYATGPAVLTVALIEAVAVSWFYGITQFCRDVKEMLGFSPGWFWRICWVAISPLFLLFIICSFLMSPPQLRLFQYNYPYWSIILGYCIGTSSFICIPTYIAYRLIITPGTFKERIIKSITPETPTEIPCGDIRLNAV

melting point [°C] | 5-HT1A [3H]DPAT, % at single concentration [2] [% @ 0.1 M] | Compound | Ki [1] [nM] | Ki [2] [nM]
 |  | 6-Fluoro-3-{1-[2-(2,3-dihydro-benzo[1,4]dioxan-5-yloxy)-ethyl]-1,2,3,6-tetrahydro-pyridin-4-yl}-1H-indole [Example 6] | 0.15 | 83.7
157 to 159 |  | Fc1ccc2[nH]cc(CC3CCN(CCOc4cccc5c4OCCO5)CC3)c2c1 (as salt: fumarate) (hydrate or solvate) [Example 2, 5-Fluoro-3-{1-[2-(2,3-dihydrobenzo[1,4]dioxin-5-yloxy)ethyl]-piperidin-4-ylmethyl}-1H-indole] |  | 
150 to 152 |  | Fc1ccc2[nH]cc(CC3CCN(CCOc4ccc5c(c4)CCC5)CC3)c2c1 (as salt: hydrochloride) (hydrate or solvate) [Example 3, 5-Fluoro-3-{1-[2-(indan-5-yloxy)-ethyl]-piperidin-4-ylmethyl}-1H-indole] |  | 
91 |  | COc1ccccc1OCCN1CCC(Cc2c[nH]c3ccc(F)cc23)CC1 (as salt: oxalate) (hydrate or solvate) [Example 1, 5-Fluoro-3-{1-[2-(2-methoxyphenoxy)ethyl]-piperidin-4-ylmethyl}-1H-indole] |  | 
 |  | COc1ccccc1OCCN1CCC(Cc2c[nH]c3ccc(F)cc23)CC1 [Example 1, 5-Fluoro-3-{1-[2-(2-methoxyphenoxy)ethyl]-piperidin-4-ylmethyl}-1H-indole] | 0.35 | 180
 |  | Fc1ccc2[nH]cc(CC3CCN(CCOc4cccc5c4OCCO5)CC3)c2c1 [Example 2, 5-Fluoro-3-{1-[2-(2,3-dihydrobenzo[1,4]dioxin-5-yloxy)ethyl]-piperidin-4-ylmethyl}-1H-indole] | 0.011 | 168
 | 0 | Fc1ccc2[nH]cc(CC3CCN(CCOc4ccc5c(c4)CCC5)CC3)c2c1 [Example 3, 5-Fluoro-3-{1-[2-(indan-5-yloxy)-ethyl]-piperidin-4-ylmethyl}-1H-indole] | 2.24 | 
 |  | C1=C(c2c[nH]c3ccccc23)CCN(CCOc2cccc3c2OCCO3)C1 [Example 4, 3-{1-[2-(2,3-Dihydro-benzo[1,4]dioxan-5-yloxy)-ethyl]-1,2,3,6-tetrahydro-pyridin-4-yl}-1H-indole] | 0.17 | 78.3
 |  | Fc1ccc2[nH]cc(C3=CCN(CCOc4cccc5c4OCCO5)CC3)c2c1 [Example 5, 5-Fluoro-3-{1-[2-(2,3-dihydro-benzo[1,4]dioxan-5-yloxy)-ethyl]-1,2,3,6-tetrahydro-pyridin-4-yl}-1H-indole] | 1.17 | 83.3

Compound | melting point [°C] | 5-HT1A [3H]DPAT, % at single concentration [2] [% @ 0.1 M] | Ki [1] [nM] | Ki [2] [nM]
C1=C(c2c[nH]c3ccccc23)CCN(CCOc2cccc3c2OCCO3)C1 (as salt: oxalate) [Example 4, 3-{1-[2-(2,3-Dihydro-benzo[1,4]dioxan-5-yloxy)-ethyl]-1,2,3,6-tetrahydro-pyridin-4-yl}-1H-indole] | 85 to 88 |  |  | 
Fc1ccc2[nH]cc(C3=CCN(CCOc4cccc5c4OCCO5)CC3)c2c1 (as salt: oxalate) [Example 5, 5-Fluoro-3-{1-[2-(2,3-dihydro-benzo[1,4]dioxan-5-yloxy)-ethyl]-1,2,3,6-tetrahydro-pyridin-4-yl}-1H-indole] | 195 to 198 |  |  | 
